# Measured values as given in ChEMBL document CHEMBL4138216, “Design, synthesis and structure-activity relationship of a focused library of β-phenylalanine derivatives as novel eEF2K inhibitors with apoptosis-inducing mechanisms in breast cancer” (Eur J Med Chem, 2018).
# Active and inactive are the calls of the source. The calls are words filed in the database; no cut-off is given here.
# Assays:
# MDA-MB-436 [1] = test: Antitumor activity against human MDA-MB-436 cells xenografted in ig dosed BALB/c nude mouse assessed as tumor growth inhibition administered once a day measured every 3 days for 24 days during compound dosing; assay type: functional, organism-based
# MDA-MB-231 [2] = test: Induction of apoptosis in human MDA-MB-231 cells assessed as membrane blebbing by phase contrast microscopy; assay type: functional, cell-based
# MDA-MB-436 [3] = test: Antiproliferative activity against human MDA-MB-436 cells assessed as decrease in cell viability after 24 hrs by MTT assay; assay type: functional, cell-based; conditions: MDA-MB-436, 24 h
# MDA-MB-231 [4] = test: Induction of apoptosis in human MDA-MB-231 cells assessed as increase in PARP cleavage after 12 to 36 hrs by Western blot method; assay type: functional, cell-based
# Mus musculus [5] = test: In vivo inhibition of eEF2K phosphorylation in tumor of BALB/c nude mouse xenografted with human MDA-MB-231 cells at 25 to 100 mg/kg, ig qd measured after 24 days by Western blot method; assay type: functional, organism-based
# MDA-MB-231 [6] = test: Induction of apoptosis in human MDA-MB-231 cells assessed as formation of apoptotic bodies by phase contrast microscopy; assay type: functional, cell-based
# MDA-MB-231 [7] = test: Induction of apoptosis in human MDA-MB-231 cells assessed as downregulation of Bcl-2 expression after 12 to 36 hrs by Western blot method; assay type: functional, cell-based
# Mus musculus [8] = test: In vivo inhibition of eEF2K phosphorylation in tumor of BALB/c nude mouse xenografted with human MDA-MB-231 cells at 25 to 100 mg/kg, ig qd measured after 24 days by immunohistochemical analysis; assay type: functional, organism-based
# MDA-MB-231 [9] = test: Induction of apoptosis in human MDA-MB-231 cells assessed as increase in caspase-8 cleavage after 12 to 36 hrs by Western blot method; assay type: functional, cell-based
# MDA-MB-231 [10] = test: Induction of apoptosis in human MDA-MB-231 cells assessed as upregulation of Bax expression after 12 to 36 hrs by Western blot method; assay type: functional, cell-based
# Mus musculus [11] = test: Toxicity in BALB/c nude mouse xenografted with human MDA-MB-231 cells assessed as decrease in spleen weight at 100 mg/kg, ig qd measured after 24 days; assay type: organism-based; conditions: in vivo, po, 576 h
# MDA-MB-436 [12] = test: Induction of apoptosis in human MDA-MB-436 cells assessed as increase in PARP cleavage after 12 to 36 hrs by Western blot method; assay type: functional, cell-based
# Mus musculus [13] = test: Toxicity in BALB/c nude mouse xenografted with human MDA-MB-436 cells assessed as decrease in spleen weight at 100 mg/kg, ig qd measured after 24 days; assay type: organism-based; conditions: in vivo, po, 576 h
# MDA-MB-231 [14] = test: Induction of apoptosis in human MDA-MB-231 cells assessed as loss of mitochondrial membrane potential after 12 to 36 hrs by rhodamine123 staining-based flow cytometric method; assay type: functional, cell-based
# MDA-MB-231 [15] = test: Induction of apoptosis in human MDA-MB-231 cells assessed as increase in caspase-3 cleavage after 12 to 36 hrs by Western blot method; assay type: functional, cell-based
# Mus musculus [16] = test: Toxicity in BALB/c nude mouse xenografted with human MDA-MB-231 cells assessed as effect on kidney weight at 25 to 100 mg/kg, ig qd measured after 24 days; assay type: organism-based; conditions: in vivo, po, 576 h
# MDA-MB-436 [17] = test: Induction of apoptosis in human MDA-MB-436 cells assessed as increase in caspase-8 cleavage after 12 to 36 hrs by Western blot method; assay type: functional, cell-based
# Mus musculus [18] = test: Toxicity in BALB/c nude mouse xenografted with human MDA-MB-436 cells assessed as effect on liver weight at 25 to 100 mg/kg, ig qd measured after 24 days; assay type: organism-based; conditions: in vivo, po, 576 h
# MDA-MB-436 [19] = test: Induction of apoptosis in human MDA-MB-436 cells assessed as increase in caspase-3 cleavage after 12 to 36 hrs by Western blot method; assay type: functional, cell-based
# MDA-MB-231 [20] = test: Antiproliferative activity against human MDA-MB-231 cells xenografted in BALB/c nude mouse at 25 to 100 mg/kg, ig qd measured after 24 days by Ki-67 staining-based assay; assay type: functional, organism-based
# MDA-MB-231 [21] = test: Induction of apoptosis in human MDA-MB-231 cells xenografted in BALB/c nude mouse assessed as decrease in pro-caspase-3 levels at 25 to 100 mg/kg, ig qd measured after 24 days by immunohistochemical analysis; assay type: functional, organism-based
# MDA-MB-436 [22] = test: Induction of apoptosis in human MDA-MB-436 cells assessed as formation of apoptotic bodies by phase contrast microscopy; assay type: functional, cell-based
# MDA-MB-436 [23] = test: Induction of apoptosis in human MDA-MB-436 cells assessed as downregulation of Bcl-2 expression after 12 to 36 hrs by Western blot method; assay type: functional, cell-based
# MDA-MB-231 [24] = test: Induction of apoptosis in human MDA-MB-231 cells assessed as DNA condensation after 12 to 36 hrs by Hoechst 33258 staining-based fluorescence assay; assay type: functional, cell-based
# MDA-MB-231 [25] = test: Induction of apoptosis in human MDA-MB-231 cells xenografted in BALB/c nude mouse assessed as increase in caspase-3 cleavage at 25 to 100 mg/kg, ig qd measured after 24 days by Western blot method; assay type: functional, organism-based
# MDA-MB-436 [26] = test: Induction of apoptosis in human MDA-MB-436 cells assessed as loss of mitochondrial membrane potential after 12 to 36 hrs by rhodamine123 staining-based flow cytometric method; assay type: functional, cell-based
# Mus musculus [27] = test: Toxicity in BALB/c nude mouse xenografted with human MDA-MB-231 cells assessed as effect on liver weight at 25 to 100 mg/kg, ig qd measured after 24 days; assay type: organism-based; conditions: in vivo, po, 576 h
# [28] = target: T1, Eukaryotic elongation factor 2 kinase (Homo sapiens, UniProt O00418); test: Inhibition of eEF2K (unknown origin) using peptide MH-1 as substrate after 2 hrs by ADP-Glo luminescent assay
# T1 sequence (O00418 whole entry): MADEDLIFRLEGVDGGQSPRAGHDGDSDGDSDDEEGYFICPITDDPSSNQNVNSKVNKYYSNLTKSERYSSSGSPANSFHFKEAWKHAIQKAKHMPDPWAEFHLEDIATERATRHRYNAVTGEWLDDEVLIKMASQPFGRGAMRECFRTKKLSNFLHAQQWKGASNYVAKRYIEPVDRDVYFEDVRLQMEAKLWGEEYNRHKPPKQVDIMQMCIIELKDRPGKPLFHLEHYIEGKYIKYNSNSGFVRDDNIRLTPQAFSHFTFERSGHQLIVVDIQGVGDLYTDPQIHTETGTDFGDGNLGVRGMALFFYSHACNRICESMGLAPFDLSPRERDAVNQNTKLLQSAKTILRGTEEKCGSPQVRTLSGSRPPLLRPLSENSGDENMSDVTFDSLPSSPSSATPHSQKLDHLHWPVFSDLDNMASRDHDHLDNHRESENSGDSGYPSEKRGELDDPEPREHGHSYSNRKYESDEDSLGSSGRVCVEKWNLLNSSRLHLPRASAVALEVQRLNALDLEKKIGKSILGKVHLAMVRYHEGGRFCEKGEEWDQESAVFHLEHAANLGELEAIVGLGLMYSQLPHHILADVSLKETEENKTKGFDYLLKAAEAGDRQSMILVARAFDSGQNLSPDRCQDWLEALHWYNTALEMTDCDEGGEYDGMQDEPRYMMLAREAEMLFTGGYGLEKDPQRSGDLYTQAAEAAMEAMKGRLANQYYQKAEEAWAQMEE
# MDA-MB-231 [29] = test: Antitumor activity against human MDA-MB-231 cells xenografted in ig dosed BALB/c nude mouse assessed as tumor growth inhibition administered once a day measured every 3 days for 24 days during compound dosing; assay type: functional, organism-based
smiles,measurement,setting,value
N#Cc1ccc(S(=O)(=O)NC(CC(=O)O)c2ccc(Cl)cc2Cl)cc1 (centres undefined),TGI,MDA-MB-436 [1],Dose-dependent effect
same,Activity,MDA-MB-231 [2],Active
same,IC50,MDA-MB-436 [3],19.8 µM
same,Activity,MDA-MB-231 [4],Active
same,inhibition,Mus musculus [5],Active
same,Activity,MDA-MB-231 [6],Active
same,Activity,MDA-MB-231 [7],Active
same,inhibition,Mus musculus [8],Active
same,Activity,MDA-MB-231 [9],Active
same,Activity,MDA-MB-231 [10],Active
same,Activity,Mus musculus [11],Toxic
same,Activity,MDA-MB-436 [12],Active
same,Activity,Mus musculus [13],Toxic
same,Activity,MDA-MB-231 [14],Active
same,Activity,MDA-MB-231 [15],Active
same,Activity,Mus musculus [16],Non-Toxic
same,Activity,MDA-MB-436 [17],Active
same,Activity,Mus musculus [18],Non-Toxic
same,Activity,MDA-MB-436 [19],Active
same,Activity,MDA-MB-231 [20],Active
same,Activity,MDA-MB-231 [21],Active
same,Activity,MDA-MB-436 [22],Active
same,Activity,MDA-MB-436 [23],Active
same,Activity,MDA-MB-231 [24],Active
same,Activity,MDA-MB-231 [25],Active
same,Activity,MDA-MB-436 [26],Active
same,Activity,Mus musculus [27],Non-Toxic
same,IC50,[28],5.5 µM
same,TGI,MDA-MB-231 [29],Dose-dependent effect
